Experimental data taken from patent US4350695A, “Antihistaminic and bronchospasmolytic triazoloquinazolinones” (Roussel Uclaf, priority 1980, dated 1982).
≈ marks a conversion by molar mass, not a printed value. Where a name gives a salt, the structure may show the parent alone.

Tests used:
[1] = test system: histamine-induced bronchoconstriction; test: Effects on histamine-induced bronchoconstriction in anaesthetised guinea pigs; assay type: in vivo, guinea pig; details: for ED50: Cavia porcellus, iv, male anaesthetised guinea pigs, administered via cannulated left jugular vein immediately before histamine, read-out: ED50 (effective dose required to reduce the histamine-induced constriction in lung air volume by 50%); for antagonising the bronchoconstricting activity of histamine: anaesthetised guinea pigs, result in words
Experimental: A. Effects on histamine-induced bronchoconstriction in anaesthetised guinea pigs
Male guinea pigs weighing 300-400 grams, after overnight starving, were anaesthetised with intraperitoneal administration of 0.7 ml/100 g of urethane. The preparation was as described by Konsett et al [Arch. exp. Path. Pharmakol. […] (1940), p. 71] with a ventilatory pump stroke volume varying between 4 to 6 ml of air (adjusted for each animal) at a stroke rate of 80 per minute to maintain a lung inflation pressure of 7.5 cm of H2 O. Blood pressure was measured via a cannula in the right carotid artery connected to a Statham blood pressure transducer and a Devices M2 recorder. The test compounds were administered via the cannulated left jugular vein and washed in with 0.1 ml of 0.9% w/w sodium chloride in distilled water. The test product was administered immediately before the histamine which was used as the agonist.
Respiratory changes were recorded via a differential transducer connected to an SE 905 transducer/converter which in turn was connected to a Devices M2 recorder. The results given in Table I show the effective dose of each of the test compounds required to reduce the histamine-induced constriction in lung air volume by 50%.

[2] = test system: isolated guinea pig tracheas; test: Effect on isolated guinea pig tracheas (histamine-induced contraction); assay type: cell-based; details: for EC50: Cavia porcellus, spirally cut trachea, Krebs Henseleit solution, 37° C., histamine as agonist, read-out: EC50 (amount required to reduce the histamine-induced contraction of the guinea pig trachea by 50%)
Experimental: B Effect on isolated guinea pig tracheas
Guinea pigs were killed by a blow on the back of the neck and the tracheas were excised, cut spirally and suspended in Krebs Henseleit solution at 37° C. and aerated with 95% O2 +5% CO2. Histamine was used as the agonist.

EC50 [2] [µg/mL] | SMILES | ED50 [1] [mg/kg] | other results
 | O=c1c2ccccc2nc2n(CCCN3CCC(O)(c4ccccc4)CC3)cnn12 [Example 8] | 2 | 
 | O=c1c2ccccc2nc2n(CCCCN3CCN(c4cccc(Cl)c4)CC3)cnn12 [1 and 2] |  | antagonistic effect, persistence ([2]; isolated guinea pig trachea, after compound washed out, result in words): very prolonged; time for which antagonistic effect could be demonstrated after the compound had been washed out ([2]; isolated guinea pig trachea, after wash-out): up to 30 minutes; antagonist of histamine induced contractions ([2]; isolated guinea pig trachea, result in words): potent antagonist
 | CCOC(=O)N1CCN(CCCn2cnn3c(=O)c4cc(C)ccc4nc23)CC1 [Example 34, 1-{3-[4-(ethoxycarbonyl)-piperazin-1-yl]-propyl}-7-methyl-[1,2,4]-triazolo-[5,1-b]-quinazolin-5-(1H)-one] | 0.01 | 
0.25 (≈ 0.591 µM) | O=c1c2ccccc2nc2n(CCCN3CCN(c4cccc(Cl)c4)CC3)cnn12 [Example 6] | 0.03 | 
0.1 | O=c1c2ccccc2nc2n(CCCCN3CCN(c4cccc(Cl)c4)CC3)cnn12 [Example 1 & 2, 1-{4-[4-(m-chlorophenyl)-piperazin-1-yl]-butyl}-triazolo-[1,2,4][5,1-b]-quinazolin-5(1H)-one dihydrochloride] | 0.02 | antagonising the bronchoconstricting activity of histamine [1]: very effective
 | O=c1c2ccccc2nc2n(CCCCCN3CCN(c4cccc(Cl)c4)CC3)cnn12 [Example 11] | 0.05 | 
 | CCOC(=O)N1CCN(CCCCn2cnn3c(=O)c4ccccc4nc23)CC1 [Example 15, 1-{4-[4-(ethoxycarbonyl)-piperazin-1-yl]-butyl}-[1,2,4]-triazolo-[5,1-b]-quinazolin-5-(1H)-one] | 0.05 | 
16 (≈ 47.1 µM) | O=c1c2ccccc2nc2n(CCCCCN3CCCCC3)cnn12 [Example 12] | 1 | 
15 (≈ 48.2 µM) | O=c1c2ccccc2nc2n(CCCN3CCCCC3)cnn12 [Example 7] | 0.3 | 
36 (≈ 111 µM) | O=c1c2ccccc2nc2n(CCCCN3CCCCC3)cnn12 [Example 24] | 0.7 | 
 | O=c1c2cc([N+](=O)[O-])ccc2nc2n(CCCCN3CCN(c4cccc(Cl)c4)CC3)cnn12 [Example 10] | 0.1 | 
10.2 (≈ 25 µM) | O=c1c2ccccc2nc2n(CCCCN3CCN(C4CCCCC4)CC3)cnn12 [Example 5] | 0.9 | 
 | CCOC(=O)N1CCN(CCCCn2cnn3c(=O)c4cc(C)ccc4nc23)CC1 [Example 3, 1-{4-[4-(ethoxycarbonyl)-piperazin-1-yl]-butyl}-7-methyl[1,2,4] triazolo [5,1-b]-quinazolin-5(1H)-one dihydrochloride] | 0.008 | antagonising the bronchoconstricting activity of histamine [1]: very effective

SMILES | EC50 [2] [µg/mL] | ED50 [1] [mg/kg] | other results
O=c1c2ccccc2nc2n(CCCCN3CCC(O)(c4ccccc4)CC3)cnn12 [Example 4] | 34 (≈ 81.4 µM) | 0.3 | 
